Measured values reported in US12377054B2, “Targeting the innate immune system to induce long-term tolerance and to resolve macrophage accumulation in atherosclerosis” (Icahn School of Medicine at Mount Sinai, priority 2016, dated 2025).

Key:
[1] = mouse, in vivo, po
[2] = test system: myeloid cell compartment; assay: Flow cytometry of leukocytes and myeloid cell compartment in blood, spleen and allograft of heart transplant recipients; format: in vivo, mice; conditions: six days after transplantation
From the text: The leukocyte population was profiled and, more extensively, the myeloid cell compartment, including neutrophils. Mo/MΦ and DC, in the blood, spleens and allografts of mice receiving placebo, oral rapamycin (Oral-Ra) and mTOR-HDL treatments, where the treatment regimen involved three intravenous mTOR-HDL injections, on the day of, as well as at two and five days post transplantation.
Mo/MΦ comprise two different subsets (Ly-6C^hi and Ly-6C^lo) with district migratory properties^23. Six days after transplantation, untreated and Oral-Ra-treated mice had increased numbers of accumulated myeloid cells in their blood, spleen and heart allografts (FIG. 2B and FIG. 9A). Further, the elevated Mo/MΦ populations contained high percentages of inflammatory Ly6C^hi monocytes (FIGS. 9A and 2B). […] The Mo/MΦ subset proportions in the spleen and transplanted organs reflected the levels in peripheral blood (FIG. 1E).
Mouse hearts were rinsed in situ with HBSS with 1% heparin. Explanted hearts were cut into small pieces and digested for 40 minutes at 37° C. with 400 U/ml collagenase IV (Sigma-Aldrich), 10 mM HEPES (Cellgro) and 0.01% DNase 1 (MP Biomedicals) in HBSS (Cellgro). Digested suspensions were passed through a nylon mesh and centrifuged, and the cell pellet was re-suspended in complete HBSS, stained and analyzed by flow cytometry (BD LSR-II; BD Biosciences).
For myeloid cell staining, fluorochrome-conjugated mAbs specific to mouse CD45 (clone 30-F11). CD11b (clone MI/70), CD11c (clone N418), F4/80 (clone CI:A3.1). Ly-6C (clone HK1.4) and corresponding isotype controls were purchased from eBioscience. Ly-6G (clone 1A8) mAb was purchased from Biolegend. F4/80 (clone CI:A3.1) was purchased from AbD Serotec. […] Flow cytometric analysis was performed on LSR II (BD Biosciences) and analyzed with FlowJo software (Tree Star, Inc.). Results are expressed as percentage of cells staining or cells counting (cells per milliliter) above background. mAbs were titered at regular intervals during the course of these studies to ensure the use of saturating concentrations. […]

[3] = test system: cardiac allografts; assay: Heart allograft survival (BALB/c into C57BL/6); format: in vivo, mice; conditions: over a 50-day period, three doses 5 mg/kg rapamycin
Description: Lastly, nanoimmunotherapy treatment's capacity to prevent organ rejection and prolong allograft survival was evaluated. Balb/c (H2^d) donor cardiac allografts were transplanted into fully allogeneic C57Bl/6 (H2) recipients treated with: (1) placebo. […] To assess graft survival, recipients underwent abdominal palpation until cardiac contractions completely ceased.
BALB/c hears were transplanted as fully vascularized heterotopic grafts into C57BL/6 mice as previously described^45. […] Cardiac allograft survival was subsequently assessed through daily palpation. Rejection was defined as the complete cessation of cardiac contraction and was confirmed by direct visualization at laparotomy. Graft survival was compared among groups using Kaplan-Meier survival analysis.

[4] = test system: RAW 264.7 cell line of murine macrophages; assay: In vitro BrdU incorporation in RAW 264.7 macrophages; format: cell-based; conditions: 24 hours

CO[C@H]1C[C@@H]2CC[C@@H](C)[C@@](O)(O2)C(=O)C(=O)N2CCCC[C@H]2C(=O)O[C@H]([C@H](C)C[C@@H]2CC[C@@H](O)[C@H](OC)C2)CC(=O)[C@H](C)/C=C(\C)[C@@H](O)[C@@H](OC)C(=O)[C@H](C)C[C@H](C)/C=C/C=C/C=C/1C [Oral-Ra, rapamycin]
kidney toxicity parameters [1]: statistical differences between Oral-Ra and mTOR-HDL | Ly-C^lo monocytes in blood [2]: 13% | Ly-C^lo monocytes in heart allografts [2]: 18% | Ly-C^lo monocytes in spleen [2]: 44% | allograft survival [3]: 35%

Cc1ccc(C)c(N/C=C/C(=O)c2ccccc2)c1 [compound 6877002, (2E)-1-phenyl-3-(2,5-dimethylanilino)-2-propen-1one]
proliferation rate of RAW 264.7 macrophages [4]: did not affect the proliferation rate
